Assay results from ChEMBL document CHEMBL1129148, “Synthesis and biological evaluation of 4-alkoxy substituted trinems. Part I” (1996).
≈ marks a conversion by molar mass, not a printed value.

Columns and labels:
Format in all cases: functional
[1] = system: Escherichia coli; assay: Compound was tested for in vitro antibacterial activity against Escherichia coli 1919 a beta-lactamase producing strain(TEM 1) with permeable outer membrane
[2] = system: Enterococcus faecalis; assay: Compound was tested for in vitro antibacterial activity against […] faecalis 850
[3] = system: Escherichia coli; assay: Compound was tested for in vitro antibacterial activity against Escherichia coli 1850E
[4] = system: Staphylococcus aureus; assay: Compound was tested for in vitro antibacterial activity against Staphylococcus aureus 853E penicillinase (PCI) producing strain
[5] = system: Bacteroides fragilis; assay: Compound was tested for in vitro antibacterial activity against Bacteroides fragilis 2017
[6] = system: Streptococcus pneumoniae; assay: Compound was tested for in vitro antibacterial activity against Streptococcus pneumoniae 3512
[7] = system: Pseudomonas aeruginosa; assay: Compound was tested for in vitro antibacterial activity against Pseudomonas aeruginosa 1911
[8] = system: Clostridium perfringens; assay: Compound was tested for in vitro antibacterial activity against Clostridium perfringens 615E

COCCO[C@H]1CCC[C@H]2C1=C(C(=O)[O-])N1C(=O)[C@H]([C@@H](C)O)[C@@H]21.[K+]
MIC [1]: 0.5 µg/mL
MIC [2]: 2 µg/mL
MIC [3]: 2 µg/mL
MIC [4]: 0.5 µg/mL
MIC [5]: 0.1 µg/mL
MIC [6]: 0.2 µg/mL
MIC [7]: > 32 µg/mL
MIC [8]: 0.03 µg/mL

C[C@@H](O)[C@H]1C(=O)N2C(C(=O)[O-])=C3[C@@H](OCCF)CCC[C@@H]3[C@H]12.[K+]
MIC [1]: 0.5 µg/mL
MIC [2]: 4 µg/mL
MIC [3]: 4 µg/mL
MIC [4]: 0.2 µg/mL
MIC [5]: 0.2 µg/mL
MIC [6]: 0.03 µg/mL
MIC [7]: > 32 µg/mL
MIC [8]: ≤ 0.01 µg/mL

COCCO[C@H]1CCC[C@@H]2C1=C(C(=O)[O-])N1C(=O)[C@H]([C@@H](C)O)[C@@H]21.[K+]
MIC [1]: 32 µg/mL
MIC [2]: > 32 µg/mL
MIC [3]: > 32 µg/mL
MIC [4]: 8 µg/mL
MIC [5]: 32 µg/mL
MIC [6]: 8 µg/mL
MIC [7]: > 32 µg/mL
MIC [8]: > 32 µg/mL

CO[C@H]1CCC[C@H]2C1=C(C(=O)[O-])N1C(=O)[C@H]([C@@H](C)O)[C@@H]21.[Na+] [SANFETRINEM SODIUM]
MIC [1]: 0.5 µg/mL
MIC [2]: 1 µg/mL
MIC [3]: 0.5 µg/mL
MIC [4]: 0.2 µg/mL
MIC [5]: 0.06 µg/mL
MIC [6]: ≤ 0.01 µg/mL
MIC [7]: > 32 µg/mL
MIC [8]: 0.03 µg/mL

C[C@@H](O)[C@H]1C(=O)N2C(C(=O)O)=C(SCCNC=N)C[C@H]12 [IMIPENEM ANHYDROUS]
MIC [1]: 0.5 µg/mL (≈ 1.67 µM)
MIC [2]: 2 µg/mL (≈ 6.68 µM)
MIC [3]: 0.5 µg/mL (≈ 1.67 µM)
MIC [4]: 0.1 µg/mL (≈ 0.334 µM)
MIC [5]: 0.06 µg/mL (≈ 0.2 µM)
MIC [6]: < 0.01 µg/mL
MIC [7]: 4 µg/mL (≈ 13.4 µM)
MIC [8]: 0.03 µg/mL (≈ 0.1 µM)

C[C@@H](O)[C@H]1C(=O)N2C(C(=O)[O-])=C3[C@@H](OCCC#N)CCC[C@@H]3[C@H]12.[K+]
MIC [1]: 1 µg/mL
MIC [2]: 2 µg/mL
MIC [3]: 4 µg/mL
MIC [4]: 0.5 µg/mL
MIC [5]: 0.2 µg/mL
MIC [6]: 0.06 µg/mL
MIC [7]: > 32 µg/mL
MIC [8]: 0.03 µg/mL

C[C@@H](O)[C@H]1C(=O)N2C(C(=O)[O-])=C3[C@@H](OCCO)CCC[C@@H]3[C@H]12.[K+]
MIC [1]: 0.5 µg/mL
MIC [2]: 8 µg/mL
MIC [3]: 0.5 µg/mL
MIC [4]: 0.5 µg/mL
MIC [5]: 0.1 µg/mL
MIC [6]: 0.1 µg/mL
MIC [7]: > 32 µg/mL
MIC [8]: 0.06 µg/mL
